In patent US8053435B2, “Naphthalenyloxypropenyl derivatives having inhibitory activity against histone deacetylase and pharmaceutical composition comprising the same” (Korea Research Institute of Chemical Technology, priority 2006, dated 2011):

test system: HDAC; experiment: Inhibitory activity against HDAC (BIOMOL Quantizyme Assay system, Fluor de Lys substrate); type: biochemical; conditions: Table 1, formula (1) series; HeLa nuclear extract as source of HDAC enzymes; enzyme reaction 1 hr; read-out: IC50 (HDAC inhibitory concentration)
Experimental: HDAC activity was analyzed using BIOMOL Quantizyme™ Assay system which comprised two steps of 1) enzyme reaction between HDAC and a substrate and 2) determination of the level of HDAC inhibitory activity.
(§1) 0.5 μl of HeLa nuclear organic layer (10 μM) (a source of HDAC enzymes) was then added thereto to a final concentration of 100 nM. The enzyme reaction was carried out for 1 hr.
Subsequently, in step 2), 2 μM tricostatin A was added to 50 μl of Flour de Lys™ developer, followed by allowing the mixture to react at room temperature for 15 minutes. The light excited at 355 nm and emitted at 460 nm from the fluorophore was measured with a fluorometric plate reader. The intensity of the fluorescence increases as the enzyme activity is higher. The HDAC inhibitory activity of each of the test compounds was determined and compared with that of the control.
0.5 μl of HeLa nuclear organic layer (10 μM) (a source of HDAC enzymes) was then added thereto to a final concentration of 100 nM, The enzyme reaction was carried out for 1 hr.
as §1, §1

| Compound | IC50 [µM] |
| --- | --- |
| O=C(NCCCn1ccnc1)/C(=C/c1ccc(C(=O)NO)cc1)COc1cccc2ccccc12 [Example 1-2, (E)-4-(3-(3-(1H-Imidazol-1-yl)propylamino)-2-((naphthalen-1-yloxy)methyl)-3-oxopropenyl)-N-hydroxybenzamide] | 0.028 |
| COc1ccc(CCNC(=O)/C(=C/c2ccc(C(=O)NO)cc2)COc2cccc3ccccc23)cc1 [Example 1-3, (E)-4-(3-(4-Methoxyphenethylamino)-2-((naphthalen-1-yloxy)methyl)-3-oxoprop-1-enyl)-N-hydroxybenzamide] | 0.08 |
| CC(C)N(CCNC(=O)/C(=C/c1ccc(C(=O)NO)cc1)COc1cccc2ccccc12)C(C)C [Example 1-5] | 0.014 |
| O=C(NCC1CCCO1)C(=Cc1ccc(C(=O)NO)cc1)COc1cccc2ccccc12 (stereo not shown) [Example 1-9, (E)-4-(3-(Tetrahydrofuran-2-yl)methylamino)-2-((naphthalen-1-yloxy)methyl)-3-oxoprop-1-enyl)-N-hydroxybenzamide] | 0.06 |
| O=C(NCCCN1CCCC1=O)/C(=C/c1ccc(C(=O)NO)cc1)COc1cccc2ccccc12 [Example 1-11, (E)-4-(3-(3-(2-Oxopyrrolidin-1-yl)propylamino)-2-((naphthalen-1-yloxy)methyl)-3-oxoprop-1-enyl)-N-hydroxy-benzamide] | 0.04 |
| COCCNC(=O)/C(=C/c1ccc(C(=O)NO)cc1)COc1cccc2ccccc12 [Example 1-14, (E)-4-(3-(2-Methoxyethylamino)-2-((naphthalen-1-yloxy)methyl)-3-oxoprop-1-enyl)-N-hydroxybenzamide] | 0.03 |
| O=C(NC1CCCCC1)/C(=C/c1ccc(C(=O)NO)cc1)COc1cccc2ccccc12 [Example 1-15, (E)-4-(3-(Cyclohexylamino)-2-((naphthalen-1-yloxy)methyl)-3-oxoprop-1-enyl)-N-hydroxybenzamide] | 0.04 |
| O=C(NCc1cccs1)/C(=C/c1ccc(C(=O)NO)cc1)COc1cccc2ccccc12 [Example 1-16, (E)-4-(3-(Thiophen-2-ylmethylamino)-2-((naphthalen-1-yloxy)methyl)-3-oxoprop-1-enyl)-N-hydroxybenzamide] | 0.01 |
| O=C(NCCCN1CCOCC1)/C(=C/c1ccc(C(=O)NO)cc1)COc1cccc2ccccc12 [Example 1-18, (E)-4-(3-(3-Morpholinopropylamino)-2-((naphthalen-1-yloxy)methyl)-3-oxoprop-1-enyl)-N-hydroxybenzamide] | 0.021 |
| CCOCCCNC(=O)/C(=C/c1ccc(C(=O)NO)cc1)COc1cccc2ccccc12 [Example 1-21, (E)-4-(3-(3-Ethoxypropylamino)-2-((naphthalen-1-yloxy)methyl)-3-oxoprop-1-enyl)-N-hydroxybenzamide] | 0.021 |
| (E)-(3-(3-(2-Methylpiperidin-1-yl)propylamino)-2-((naphthalen-1-yloxy)methyl)-3-oxoprop-1-enyl)-N-hydroxybenzamide [Example 1-19] | 0.009 |

same assay, conditions: Table 3, formula (2) series; HeLa nuclear extract as source of HDAC enzymes; enzyme reaction 1 hr; read-out: IC50 (HDAC inhibitory concentration)

| Compound | IC50 [µM] |
| --- | --- |
| O=C(CCCC/C=C(\COc1cccc2ccccc12)C(=O)NCCc1ccc(O)cc1)NO [Example 2-2, (E)-N8-Hydroxy-N1-(4-hydroxyphenethyl)-2-((naphthalen-1-yloxy)methyl)-2-octenediamide] | 0.009 |
| COCC(C)NC(=O)/C(=C/CCCCC(=O)NO)COc1cccc2ccccc12 (stereo not shown) [Example 2-5, (E)-N8-Hydroxy-N1-(1-methoxypropan-2-yl)-2-((naphthalen-1-yloxy)methyl)-2-octenediamide] | 0.017 |
| O=C(CCCC/C=C(\COc1cccc2ccccc12)C(=O)NCCc1ccc(F)cc1)NO [Example 2-7, (E)-N1-(4-Fluorophenethyl)-N8-hydroxy-2-((naphthalen-1-yloxy)methyl)-2-octenediamide] | 0.02 |
| O=C(CCCC/C=C(\COc1cccc2ccccc12)C(=O)NCCC1=CCCCC1)NO [Example 2-9, (E)-N1-(2-Cyclohexenylethyl)-N8-hydroxy-2-((naphthalen-1-yloxy)methyl)-2-octenediamide] | 0.027 |
| O=C(CCCC/C=C(\COc1cccc2ccccc12)C(=O)NCCCN1CCCC1=O)NO [Example 2-10, (E)-N8-Hydroxy-2-((naphthalen-1-yloxy)methyl)-N1-(3-(2-oxopyrrolidin-1-yl)propyl)-2-octenediamide] | 0.016 |
| O=C(CCCC/C=C(\COc1cccc2ccccc12)C(=O)NCc1ccc(OC(F)(F)F)cc1)NO [Example 2-17, (E)-N8-Hydroxy-2-((naphthalen-1-yloxy)methyl)-N1-(4-(trifluoromethoxy)benzyl)-2-octenediamide] | 0.007 |
| O=C(CCCC/C=C(\COc1cccc2ccccc12)C(=O)NC1CCN(CC2CCCCC2)C1)NO (stereo not shown) [Example 2-18, (E)-N1-(1-(Cyclohexylmethyl)pyrrolidin-3-yl)-N8-hydroxy-2-((naphthalen-1-yloxy)methyl)-2-octenediamide] | 0.01 |
| O=C(CCCC/C=C(\COc1cccc2ccccc12)C(=O)NC1CCN(C(=O)C2CCCCC2)C1)NO (stereo not shown) [Example 2-22, (E)-N1-(1-(Cyclohexanecarbonyl)pyrrolidin-3-yl)-N8-hydroxy-2-((naphthalen-1-yloxy)methyl)-2-octenediamide] | 0.022 |
| O=C(CCCC/C=C(\COc1cccc2ccccc12)C(=O)NC1CCNC1)NO (stereo not shown) [Example 2-24, (E)-N8-Hydroxy-2-((naphthalen-1-yloxy)methyl)-N1-(pyrrolidin-3-yl)-2-octenediamide] | 0.012 |
| CCN1CCC(NC(=O)/C(=C/CCCCC(=O)NO)COc2cccc3ccccc23)CC1 [Example 2-28, (E)-N1-(1-Ethylpiperidin-4-yl)-N8-hydroxy-2-((naphthalen-1-yloxy)methyl)-2-octenediamide] | 0.013 |

same assay, conditions: Table 5, formula (3) series; HeLa nuclear extract as source of HDAC enzymes; enzyme reaction 1 hr; read-out: Inhibitory conc. (IC50, μM/ml)

| Compound | IC50 [µM] |
| --- | --- |
| CC1CCCCN1CCCNC/C(=C/CCCCC(=O)NO)COc1cccc2ccccc12 (stereo not shown) [Example 3-5, (Z)—N-Hydroxy-8-(3-(2-methylpiperidin-1-yl)propylamino)-7-((naphthalen-1-yloxy)methyl)oct-6-enamide] | 0.062 |
| CN(C)CCCNC/C(=C/CCCCC(=O)NO)COc1cccc2ccccc12 [Example 3-6, (Z)-8-(3-(Dimethylamino)propylamino)-N-hydroxy-7-((naphthalen-1-yloxy)methyl)oct-6-enamide] | 0.002 |
| CCN(CC)CCCNC/C(=C/CCCCC(=O)NO)COc1cccc2ccccc12 [Example 3-12, (Z)-8-(3-(Diethylamino)propylamino)-N-hydroxy-7-((naphthalen-1-yloxy)methyl)oct-6-enamide] | 0.113 |
| CC(C)N(CCNC/C(=C/CCCCC(=O)NO)COc1cccc2ccccc12)C(C)C [Example 3-13] | 0.042 |

same assay, conditions: Table 7, formula (4) series; HeLa nuclear extract as source of HDAC enzymes; enzyme reaction 1 hr; read-out: HDAC Inhibitory conc. (IC50, μM/ml)

| Compound | IC50 [µM] |
| --- | --- |
| O=C(NO)c1ccc(/C=C(/CNCc2ccc(OC(F)(F)F)cc2)COc2cccc3ccccc23)cc1 [Example 4-3, (Z)—N-hydroxy-4-(3-(naphthalen-1-yloxy)-2-((4-(trifluoromethoxy)benzylamino)methyl)prop-1-enyl)-benzamide] | 0.14 |
| CC(C)(C)OC(=O)N1CCC(NC/C(=C/c2ccc(C(=O)NO)cc2)COc2cccc3ccccc23)C1 (stereo not shown) [Example 4-4, t-butyl (Z)-3-(3-(4-(hydroxycarbamoyl)phenyl)-2-((naphthalen-1-yloxy)methyl)allylamino)-pyrrolidine-1-carboxylate] | 0.208 |
| O=C(NO)c1ccc(/C=C(/CNC2CCNC2)COc2cccc3ccccc23)cc1 (stereo not shown) [Example 4-5, (Z)—N-hydroxy-4-(3-(naphthalen-1-yloxy)-2-((pyrrolidin-3-ylamino)methyl)prop-1-enyl)-benzamide] | 0.02 |
| O=C(NO)c1ccc(/C=C(/CNC2CCN(C(=O)C3CCCCC3)C2)COc2cccc3ccccc23)cc1 (stereo not shown) [Example 4-6, (Z)-4-(3-(1-(cyclohexylcarbonyl)pyrrolidin-3-ylamino)-2-((naphthalen-1-yloxy)-methyl)prop-1-enyl)-N-hydroxybenzamide] | 0.061 |
| O=C(NO)c1ccc(/C=C(/CNC2CCN(CC3CCCCC3)C2)COc2cccc3ccccc23)cc1 (stereo not shown) [Example 4-8, (Z)-4-(3-(1-(cyclohexylmethyl)pyrrolidin-3-ylamino)-2-((naphthalen-1-yloxy)-methyl)prop-1-enyl)-N-hydroxybenzamide] | 0.045 |
| O=C(NO)c1ccc(/C=C(/CNC2CCN(Cc3ccccc3)C2)COc2cccc3ccccc23)cc1 (stereo not shown) [Example 4-9, (Z)-4-(3-(1-benzylpyrrolidin-3-ylamino)-2-((naphthalen-1-yloxy)methyl)prop-1-enyl)-N-hydroxybenzamide] | 0.046 |
| O=C(NO)c1ccc(/C=C(/CNC2CCN(C3CCCCC3)C2)COc2cccc3ccccc23)cc1 (stereo not shown) [Example 4-12, (Z)-4-(3-(1-cyclohexylpyrrolidin-3-ylamino)-2-((naphthalen-1-yloxy)methyl)prop-1-enyl)-N-hydroxybenzamide] | 0.04 |
| CN1CCCC1CCNC/C(=C/c1ccc(C(=O)NO)cc1)COc1cccc2ccccc12 (stereo not shown) [Example 4-14, (Z)—N-hydroxy-4-(3-(2-(1-methylpyrrolidin-2-yl)ethylamino)-2-((naphthalen-1-yloxy)methyl)prop-1-enyl)benzamide] | 0.013 |
| O=C(NO)c1ccc(/C=C(/CNC2CCCCC2)COc2cccc3ccccc23)cc1 [Example 4-21, (Z)-4-(3-(cyclohexylamino)-2-((naphthalen-1-yloxy)methyl)prop-1-enyl)-N-hydroxybenzamide] | 0.03 |
